This assay concerns the target p38α MAP kinase (Homo sapiens, UniProt Q16539). Briefly: p38α MAP kinase inhibition assay (non radioactive immunosorbent enzyme assay, ATF-2 phosphorylation; Ultra Glo Promega kit). It is filed as biochemical. To be noted: mean of four separated experiments; compounds assayed at 10^−4 to 10^−8 M.
p38α MAP kinase, sequence (Q16539 whole entry): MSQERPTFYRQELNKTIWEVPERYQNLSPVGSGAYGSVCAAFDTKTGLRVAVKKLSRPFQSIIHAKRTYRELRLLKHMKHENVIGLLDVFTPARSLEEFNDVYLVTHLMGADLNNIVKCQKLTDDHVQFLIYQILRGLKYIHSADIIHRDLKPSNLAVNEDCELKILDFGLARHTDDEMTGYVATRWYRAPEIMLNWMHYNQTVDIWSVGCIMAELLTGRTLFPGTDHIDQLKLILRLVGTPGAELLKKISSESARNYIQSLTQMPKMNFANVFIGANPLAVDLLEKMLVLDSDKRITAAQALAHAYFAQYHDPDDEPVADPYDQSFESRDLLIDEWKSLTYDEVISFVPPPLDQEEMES
As a reminder, the IC50 is the concentration needed to halve the response being measured. Take `O=C1ON(Cc2ccccc2)C(c2ccccc2)N1c1ccc(F)cc1` (centres unmarked) [Compound 3g, 2-Benzyl-4-(4-fluorophenyl)-3-phenyl-1,2,4-oxadiazolidin-5-one]: the IC50 stood at 15.1 µM.

In the case of `O=C1ON(c2ccccc2)C(c2ccncc2)N1c1ccc(C(F)(F)F)cc1` (centres unmarked) [Compound 3c, 2-Phenyl-4-(4-trifluoromethyl)-3-(pyridin-4-yl)-1,2,4-oxadiazolidin-5-one], the concentration for half-maximal inhibition (IC50) turned out to be 2 µM.

Take `O=C1ON(Cc2ccccc2)C(c2ccncc2)N1c1ccc([N+](=O)[O-])cc1` (centres unmarked) [Compound 3f, 2-Benzyl-4-(4-nitrophenyl)-3-(pyridin-4-yl)-1,2,4-oxadiazolidin-5-one]: the half-inhibitory concentration (IC50) turned out to be 0.15 µM.

For `O=C1ON(c2ccccc2)C(c2ccncc2)N1c1ccc(Cl)cc1` (centres unmarked) [Compound 3d, 2-Phenyl-4-(4-chlorophenyl)-3-(pyridin-4-yl)-1,2,4-oxadiazolidin-5-one], the IC50 came out at 1.5 µM.

`CC1N(c2ccccc2)OC(=O)N1c1ccc(F)cc1` (centres unmarked) [Compound 3l, 2-Phenyl-4-(4-fluorophenyl)-3-methyl-1,2,4-oxadiazolidin-5-one]: the IC50 was found to be 22.8 µM.

For the compound `CC1N(Cc2ccccc2)OC(=O)N1c1ccc(F)cc1` (centres unmarked) [Compound 3i, 2-Benzyl-4-(4-fluorophenyl)-3-methyl-1,2,4-oxadiazolidin-5-one], the IC50 stood at 18.5 µM.

On to `O=C1ON(Cc2ccccc2)C(c2ccccc2)N1c1ccc([N+](=O)[O-])cc1` (centres unmarked) [Compound 3h, 2-Benzyl-4-(4-nitrophenyl)-3-phenyl-1,2,4-oxadiazolidin-5-one], for which the half-maximal inhibitory concentration (IC50) is 60.5 µM.

For the compound `O=C1ON(Cc2ccccc2)C(c2ccncc2)N1c1ccc(F)cc1` (centres unmarked) [Compound 3e, 2-Benzyl-4-(4-fluorophenyl)-3-(pyridin-4-yl)-1,2,4-oxadiazolidin-5-one], the concentration for half-maximal inhibition (IC50) is 0.08 µM.

The values are drawn from PMC8003627, “Synthesis and Biological Evaluation of 2,3,4-Triaryl-1,2,4-oxadiazol-5-ones as p38 MAPK Inhibitors” (Molecules, 2021).
